Patent US20100297159A1, “THOMSEN-FRIEDENREICH DISACCHARIDE MODIFIED IMMUNOGEN (TFD), PREPARATION PROCEDURE, COMPOSITIONS COMPRISING IT, USES, AND TREATMENT METHODS” (CONSEJO NACIONAL DE INVESTIGACIONES CIETIFICAS Y TECNICAS …, priority 2007, published 2010)
Where two headings read alike, the source gives them in different places.

Key:
[1] = tested on: HT29 tumor cell / antibody interaction; assay: Competition ELISA of cells, inhibition of antibody interaction with HT29 tumor cells; assay type: cell-based, human; conditions: for Inhibitory effect, IgM mediated interaction: in words; for Inhibitory effect relative to BzlαTFD, IgM mediated interaction: times less inhibitory effect than BzlαTFD
Method: Level of antibodies against epithelial tumor cells was determined using lines HT29, MCF7, and T47D. Tumor cells were cultured to sub-comfluence in media recommended by ATCC, and harvested by treatment with trypsin. They were adsorbed to multi-well plates, fixed with cold methanol for […] and saturated with PBS-T for 1 hour at room temperature. ELISA of cells was carried out by incubating serial dilutions of mouse sera against the different tumor lines for 2 hours at room temperature in PBS, and then was washed 4 times with PBS-T. The adhered antigen-antibody complex was detected with a 1/1000 dilution of anti-IgG goat antibody or mouse IgM conjugated to a peroxidase in PBS-T, incubated for 1 hour at room temperature, and washed […] PBS-T. Color reaction was developed as described for ELA. Steps for competition ELISA of cells were the same as for ELISA of cells, except in that the optimum anti-sera dilution was pre-incubated with several antigens related to carbohydrates for 1 hour at room temperature prior to the addition to the plate wells.

[2] = tested on: TFD-BSA antigen / IgG, IgM antibodies interaction; assay: Competition ELISA, inhibition of antibody interaction with TFD-BSA antigen; assay type: binding, mice; conditions: for IC50: antisera from BzlαTFD-Lys5-KLHs immunization; for Inhibitory effect in the interaction of TFD-BSA/antigen T-IgG/IgM antibodies: competition ELISA, TFD-BSA and antigen T, in words
Method: (§1) Target antigens (10 μg/ml) were adhered to multi-well plates of polystirene in saline phosphate buffer (PBS; 10 mM sodium phosphate, pH 7.2 and 150 mM NaCl) overnight at 4° C. Glycolipids were diluted in methanol and dried for 1 hour at 60° C. After covering the wells with the antigens, these were saturated with PBS-1% BSA-0.05% Tween 20 for 1 hour at 37° C. Serial dilutions of antiserum were incubates with the antigen for 2 hours at room temperature, and then washed 5 times with PBS. The adhered antigen-antibody complex was detected with a 1/1000 dilution of anti-IgG goat antibody or mouse IgM conjugated with peroxydase in PBS-0.05% Tween 20 (PBS-T), incubates at room temperature for 1 hour, and washed 5 times with PBS. Color reaction was developed as described for ELA.
(§2) The three antibodies showing highest anti-TFD and anti-antigen T levels were analyzed by competition ELISA, and results were averaged. Optimum antiserum dilutions with an optical density of 1.0 against TFD-BSA and T-MUC1 (10 μg/ml) as blanc antigen were determined in preliminary experiments. Competition ELISA stages were equal to those in ELISA, except in that optimal antiserum dilution was pre-incubated with several related antigens in carbohydrates for 1 hour at room temperature before being added to the wells. Minimum concentration of carbohydrates required for 50% inhibition (ID50) of antigen-antibody interaction is a more specific parameter.

[3] = tested on: T-MUC1 antigen / IgG, IgM antibodies interaction; assay: Competition ELISA, inhibition of antibody interaction with T-MUC1 antigen; assay type: binding, mice; conditions: antisera from BzlαTFD-Lys5-KLHs immunization
Method: as §1, §2

[4] = HT29, IgG, read-out: Concentration requested to produce 50% inhibition (IC50), antibodies with HT29 tumor cell interaction, IgG
[5] = HT29, IgM, read-out: Concentration requested to produce 50% inhibition (IC50), antibodies with HT29 tumor cell interaction, IgM
[6] = IgG, read-out: Concentration required to produce 50% inhibition (IC50), TFD-BSA antigen, IgG
[7] = IgM, read-out: Concentration required to produce 50% inhibition (IC50), TFD-BSA antigen, IgM
[8] = IgG, read-out: Concentration required to produce 50% inhibition (IC50), T-MUC1 antigen, IgG
[9] = IgM, read-out: Concentration required to produce 50% inhibition (IC50), T-MUC1 antigen, IgM
[10] = Homo sapiens, HT-29, HT29, IgG, read-out: Concentration requested to produce 50% inhibition (IC50), antibodies with HT29 tumor cell interaction, IgG
[11] = Homo sapiens, HT-29, HT29, IgM, read-out: Concentration requested to produce 50% inhibition (IC50), antibodies with HT29 tumor cell interaction, IgM

Row | Compound | IC50 [1, 4] [mM] | IC50 [1, 5] [mM] | IC50 [2, 6] [mM] | IC50 [2, 7] [mM] | IC50 [3, 8] [mM] | IC50 [3, 9] [mM] | IC50 [1, 10] [mM] | IC50 [1, 11] [mM] | Inhibitory effect, IgM mediated interaction ([1]; HT29) | Inhibitory effect in the interaction of TFD-BSA/antigen T-IgG/IgM antibodies [2] | Inhibitory effect relative to BzlαTFD, IgM mediated interaction ([1]; HT29) [times]
1 | CC(=O)N[C@H]1[C@@H](Oc2ccc([N+](=O)[O-])cc2)O[C@H](CO)[C@H](O)[C@@H]1O[C@@H]1O[C@H](CO)[C@H](O)[C@H](O)[C@H]1O [pNPαTFD] | > 10 | 2 |  |  |  |  |  |  | greatest inhibitors |  | 
2 | CC(=O)NC1C(O)OC(CO)C(O)C1O (centres unmarked) [GlcNAc] | > 100 | > 100 | > 100 | > 100 | > 100 | > 100 |  |  | did not show inhibitory effect | did not show any effect | 
3 | OCC1OC(O)C(O)C(O)C1O (centres unmarked) [Glc] |  |  | > 100 | > 100 | > 100 | > 100 | > 100 | > 100 |  | did not show any effect | 
4 | OCC1OC(O)C(O)C(O)C1O (centres unmarked) [Gal] |  |  |  |  |  |  |  |  | did not show inhibitory effect |  | 

The next lines start with results.

Row | IC50 [1, 4] [mM] | IC50 [1, 5] [mM] | IC50 [2, 6] [mM] | IC50 [2, 7] [mM] | IC50 [3, 8] [mM] | IC50 [3, 9] [mM] | IC50 [1, 10] [mM] | IC50 [1, 11] [mM] | Compound | Inhibitory effect, IgM mediated interaction ([1]; HT29) | Inhibitory effect in the interaction of TFD-BSA/antigen T-IgG/IgM antibodies [2] | Inhibitory effect relative to BzlαTFD, IgM mediated interaction ([1]; HT29) [times]
5 | > 10 | 8 | 10 | 3.5 | 20 | > 20 |  |  | CC(=O)N[C@@H]1[C@@H](O[C@@H]2O[C@H](CO)[C@H](O)[C@H](O)[C@H]2O)[C@@H](O)[C@@H](CO)O[C@@H]1O [TFD, Galβ3GalNAcα] |  | significant inhibition | 4
6 |  |  | 2.5 | 0.1 | 10 | > 10 | 4 | 2 | CC(=O)NC1C(OCc2ccccc2)OC(CO)C(O)C1OC1OC(CO)C(O)C(O)C1O (centres unmarked) [BzlαTFD] | greatest inhibitors | significant inhibition | 
7 |  |  | 5 | 1 | 20 | > 20 | 8 | 8 | CC(=O)NC1C(OCc2ccccc2)OC(CO)C(O)C1O (centres unmarked) [BzlαGalNAc] |  | significant inhibition | 4
8 |  | 20 | 20 | 30 | > 100 | > 100 | > 100 |  | CC(=O)NC1C(O)OC(CO)C(O)C1O (centres unmarked) [GalNAc] |  |  | 10
